Structures can show the parent of a compound that is named as a salt.
Legend:
[1] = system: rabbit aorta strip contracted with noradrenaline; assay: Vasodilative activity in vitro, inhibition of noradrenaline-induced contraction of rabbit aorta strip; format: cell-based; settings: Oryctolagus cuniculus; 50% inhibition of noradrenaline contraction of rabbit aorta strip
Experimental: The vasodilative activity of the compounds of the present invention were determined by testing of a rabbit aorta strip contracted with noradrenaline. Using the method described by K. Murakami et al. Eur. J. Pharmacol., 141, 195, 1987., IC50 values (i.e. the micromolar (μM) concentrations of active substances causing a 50% inhibition of the contraction of the aorta strip), were determined.

[2] = system: Arg-vasopressin induced coronary spasm, anaesthetized Sprague Dawley rats; assay: In vivo antianginal activity, Arg-vasopressin-induced coronary spasm (T-wave increase) in anaesthetized rats; settings: Rattus norvegicus, iv, 4 increasing doses; 50% inhibition of T-wave increase induced by i.v. Arg-vasopressin in anaesthetized rats
Experimental: The in vivo antianginal activity was determined on anaesthetized Sprague Dawley rats of weight 350-400 g, in accordance with the method of M. Leitold et al., Arzeim. Forsch., 36, 1454 1986. The test was carried out by intravenously administering to the animals one I.U./Kg, equivalent to […] of Arg-vasopressin, thus inducing a reproducible coronary spasm that may be electrocardiographically monitored by an increase of the T-wave. The animals were treated intravenously with 4 increasing doses of the compounds of the present invention to measure their ED50 (i.e., the dose giving 50% inhibition of the T-wave increase).

Row | SMILES | IC50 [1] [nM] | ED50 [2] [mg/kg]
1 | O=C1c2cc([N+](=O)[O-])ccc2OCN1CCO[N+](=O)[O-] [Example 1, 2,3-Dihydro-3-(2'-nitrooxyethyl)-6-nitro,4H-1,3-benzoxazin-4-one] | 21 | 0.0637
2 | CC(=O)Nc1ccc2c(c1)C(=O)N(CCO[N+](=O)[O-])CO2 [Example 2, 6-Acetamido-2,3-dihydro-3-(2'-nitrooxyethyl)-4H-1,3-benzoxazin-4-one] | 270 | 0.021
3 | CN(C)C=Nc1ccc2c(c1)C(=O)N(CCO[N+](=O)[O-])CO2 [Example 3, 2,3-Dihydro-6-(N',N',-dimethyl-N-formimido)-3-(2'-nitro-oxyethyl)-4H-1,3-benzoxazin-4-one-HCl] | 640 | 0.0097
4 | N#Cc1ccc2c(c1)C(=O)N(CCO[N+](=O)[O-])CO2 [Example 4, 6-Ciano-2,3-dihydro-3-(2'-nitrooxyethyl)-4H-1.3-benzoxazin-4-one] | 71 | 0.0115
5 | O=C1c2cc(O)ccc2OCN1CCO[N+](=O)[O-] [Example 5, 2,3-Dihydro-6-hydroxy-3-(2'-nitrooxyethyl)-4H-1,3-benzoxazin-4-one] | 96 | 
6 | O=C1c2ccc(O)cc2OCN1CCO[N+](=O)[O-] [Example 6, 2,3-Dihydro-7-hydroxy-3-(2'-nitrooxyethyl)-4H-1,3-benzoxazin-4-one] | 57 | 

Source: patent US5480882A, “Benzoxazinone and benzothiazinone derivatives having cardiovascular activity” (Italfarmaco S.p.A., priority 1992, dated 1996)
